The values below come from US8481544B2, “Antibacterial compositions” (Biota Europe Limited, priority 2006, dated 2013).

Converted amounts (≈) assume the structure as drawn.

The assay has as its system Enterococcus faecalis ATCC 29212. The assay is described as follows: MIC against Enterococcus faecalis ATCC 29212. The assay is classed as cell-based. The note with it: ATCC29212; Enterococcus faecalis ATCC 29212; read-out: MICs against Enterococcus faecalis, Activity. How it is done: Institute. Methods for Dilution Antimicrobial Susceptibility Tests for Bacteria That Grow Aerobically; Approved Standard—Seventh Edition. Document M7-A7. CLSI, Wayne, Pa., 2006; Clinical Laboratories and Standards Institute. Methods for Antimicrobial Susceptibility Testing of Anaerobic Bacteria; Approved Standard—Sixth Edition. Document M11-A6. CLSI, Wayne, Pa., 2004).
Compounds of this invention were tested for antimicrobial activity by susceptibility testing in liquid or on solid media. MICs for compounds against each strain were determined by the broth microdilution or agar dilution method according to the guidelines of the Clinical Laboratories and Standards Institute, formerly the National Committee for Clinical Laboratory Standards (Clinical Laboratories and Standards Institute. Methods for Dilution Antimicrobial Susceptibility Tests for Bacteria That Grow Aerobically; Approved Standard—Seventh Edition. Document M7-A7. CLSI, Wayne, Pa., 2006; Clinical Laboratories and Standards Institute. Methods for Antimicrobial Susceptibility Testing of Anaerobic Bacteria; Approved Standard—Sixth Edition. Document M11-A6. CLSI, Wayne, Pa., 2004).
Regarding `CCNC(=O)Nc1nc2cc(-c3ccc(CC(=O)NC)nc3)cc(-c3ccccn3)c2s1` [Example 70, 2-{5-[2-(3-Ethyl-ureido)-7-pyridin-2-yl-benzothiazol-5-yl]-pyridin-2-yl}-N-methyl-acetamide], the MIC was below 0.25 µg/mL.

On to `CCNC(=O)Nc1nc2cc(-c3cnc4c(c3)CCC(=O)N4)cc(-c3ccccn3)c2s1` [Example 71, 1-Ethyl-3-[5-(7-oxo-5,6,7,8-tetrahydro-[1,8]naphthyridin-3-yl)-7-pyridin-2-yl-benzothiazol-2-yl]-urea], for which the MIC was below 0.25 µg/mL.

Turning to `CCNC(=O)Nc1nc2cc(-c3ccn(CCN(C)C)c(=O)c3)cc(-c3ccccn3)c2s1` [Example 72, 1-{5-[1-(2-Dimethylamino-ethyl)-2-oxo-1,2-dihydro-pyridin-4-yl]-7-pyridin-2-yl-benzothiazol-2-yl}-3-ethyl-urea], the MIC lay within 0.25 to 1 µg/mL (≈ 0.54 to 2.16 µM).

For the molecule `CCNC(=O)Nc1nc2cc(-c3cnccn3)cc(-c3cnc(N)nc3)c2s1` [Example 73, 1-[7-(2-Amino-pyrimidin-5-yl)-5-pyrazin-2-yl-benzothiazol-2-yl]-3-ethyl-urea], the MIC is 2 to 16 µg/mL (≈ 5.1 to 40.8 µM).

Turning to `CCNC(=O)Nc1nc2cc(-c3ccccn3)cc(-c3cnc(N)nc3)c2s1` [Example 74, 1-[7-(2-Amino-pyrimidin-5-yl)-5-pyridin-2-yl-benzothiazol-2-yl]-3-ethyl-urea], the MIC is 2 to 16 µg/mL (≈ 5.11 to 40.9 µM).

`CCNC(=O)Nc1nc2cc(-c3cccnc3)cc(-c3ccccc3F)c2s1` [Example 75, 1-Ethyl-3-[7-(2-fluoro-phenyl)-5-pyridin-3-yl-benzothiazol-2-yl]-urea]: the MIC lay in the range of 0.25 to 1 µg/mL (≈ 0.637 to 2.55 µM).

Turning to `CCNC(=O)Nc1nc2cc(-c3cccnc3)cc(-c3cccnc3F)c2s1` [Example 76, 1-Ethyl-3-[7-(2-fluoro-pyridin-3-yl)-5-pyridin-3-yl-benzothiazol-2-yl]-urea], the MIC lay in the range of 0.25 to 1 µg/mL (≈ 0.635 to 2.54 µM).

For the molecule `CCNC(=O)Nc1nc2cc(-c3cccnc3)cc(-c3ccsc3)c2s1` [Example 77, 1-Ethyl-3-(5-pyridin-3-yl-7-thiophen-3-yl-benzothiazol-2-yl)-urea], the MIC was in the range of 0.25 to 1 µg/mL (≈ 0.657 to 2.63 µM).

`CCNC(=O)Nc1nc2cc(-c3cccnc3)cc(-c3ccccc3)c2s1` [Example 78, 1-Ethyl-3-(7-phenyl-5-pyridin-3-yl-benzothiazol-2-yl)-urea]: the MIC fell in the range of 0.25 to 1 µg/mL (≈ 0.668 to 2.67 µM).

Consider `CCNC(=O)Nc1nc2cc(-c3cccnc3)cc(C3CC3)c2s1` [Example 79, 1-(7-Cyclopropyl-5-pyridin-3-yl-benzothiazol-2-yl)-3-ethyl-urea], for which the MIC lay within 0.25 to 1 µg/mL (≈ 0.739 to 2.95 µM).

Turning to `CCNC(=O)Nc1nc2cc(-c3cccnc3)cc(-c3cn[nH]c3)c2s1` [Example 80, 1-Ethyl-3-[7-(1H-pyrazol-4-yl)-5-pyridin-3-yl-benzothiazol-2-yl]-urea], the MIC was in the range of 0.25 to 1 µg/mL (≈ 0.686 to 2.74 µM).

On to `CCNC(=O)Nc1nc2cc(-c3cccnc3)cc(-c3cnn(CCN4CCOCC4)c3)c2s1` [Example 81, 1-Ethyl-3-{7-[1-(2-morpholin-4-yl-ethyl)-1H-pyrazol-4-yl]-5-pyridin-3-yl-benzothiazol-2-yl}-urea], for which the MIC lay in the range of 2 to 16 µg/mL (≈ 4.19 to 33.5 µM).

`CCNC(=O)Nc1nc2cc(-c3cccnc3)cc(-c3cc[nH]n3)c2s1` [Example 82, 1-Ethyl-3-[7-(1H-pyrazol-3-yl)-5-pyridin-3-yl-benzothiazol-2-yl]-urea]: the MIC was in the range of 0.25 to 1 µg/mL (≈ 0.686 to 2.74 µM).

With `CCNC(=O)Nc1nc2cc(-c3cccnc3)cc(-c3cnn(C)c3)c2s1` [Example 83, 1-Ethyl-3-[7-(1-methyl-1H-pyrazol-4-yl)-5-pyridin-3-yl-benzothiazol-2-yl]-urea], the MIC was 0.25 to 1 µg/mL (≈ 0.661 to 2.64 µM).

For the molecule `CCNC(=O)Nc1nc2cc(-c3cccnc3)cc(-c3ccc(OC)cc3)c2s1` [Example 84, 1-Ethyl-3-[7-(4-methoxy-phenyl)-5-pyridin-3-yl-benzothiazol-2-yl]-urea], the MIC was in the range of 0.25 to 1 µg/mL (≈ 0.618 to 2.47 µM).

With `CCNC(=O)Nc1nc2cc(-c3cccnc3)cc(-c3cccnc3OC)c2s1` [Example 85, 1-Ethyl-3-[7-(2-methoxy-pyridin-3-yl)-5-pyridin-3-yl-benzothiazol-2-yl]-urea], the MIC lay within 0.25 to 1 µg/mL (≈ 0.617 to 2.47 µM).

Turning to `CCNC(=O)Nc1nc2cc(-c3cccnc3)cc(-c3cccc(OC)c3)c2s1` [Example 86, 1-Ethyl-3-[7-(3-methoxy-phenyl)-5-pyridin-3-yl-benzothiazol-2-yl]-urea], the MIC was in the range of 0.25 to 1 µg/mL (≈ 0.618 to 2.47 µM).

`CCNC(=O)Nc1nc2cc(-c3cccnc3)cc(-c3ccccc3OC)c2s1` [Example 87, 1-Ethyl-3-[7-(2-methoxy-phenyl)-5-pyridin-3-yl-benzothiazol-2-yl]-urea]: the MIC lay in the range of 0.25 to 1 µg/mL (≈ 0.618 to 2.47 µM).

For the molecule `CCNC(=O)Nc1nc2cc(-c3cccnc3)cc(-c3nccs3)c2s1` [Example 92, 1-Ethyl-3-(5-pyridin-3-yl-7-thiazol-2-yl-benzothiazol-2-yl)-urea], the MIC is below 0.25 µg/mL.

For the molecule `CCNC(=O)Nc1nc2cc(-c3cccnc3)cc(-c3ncccn3)c2s1` [Example 93, 1-Ethyl-3-(5-pyridin-3-yl-7-pyrimidin-2-yl-benzothiazol-2-yl)-urea], the MIC was in the range of 0.25 to 1 µg/mL (≈ 0.664 to 2.66 µM).

Regarding `CCNC(=O)Nc1nc2cc(-c3cccnc3)cc(-c3ncccc3N)c2s1` [Example 94, 1-[7-(3-Amino-pyridin-2-yl)-5-pyridin-3-yl-benzothiazol-2-yl]-3-ethyl-urea], the MIC lay within 2 to 16 µg/mL (≈ 5.12 to 41 µM).

Regarding `CCNC(=O)Nc1nc2cc(-c3cccnc3)cc(-c3ncccc3C#N)c2s1` [Example 95, 1-[7-(3-Cyano-pyridin-2-yl)-5-pyridin-3-yl-benzothiazol-2-yl]-3-ethyl-urea], the MIC is below 0.25 µg/mL.

Consider `CCNC(=O)Nc1nc2cc(-c3cccnc3)cc(-c3ccc(CO)cn3)c2s1` [Example 96, 1-Ethyl-3-[7-(5-hydroxymethyl-pyridin-2-yl)-5-pyridin-3-yl-benzothiazol-2-yl]-urea], for which the MIC was below 0.25 µg/mL.

Take `CCNC(=O)Nc1nc2cc(-c3cccnc3)cc(-c3ccc(CN)cn3)c2s1` [Example 97, 1-[7-(5-Aminomethyl-pyridin-2-yl)-5-pyridin-3-yl-benzothiazol-2-yl]-3-ethyl-urea]: the MIC is 0.25 to 1 µg/mL (≈ 0.618 to 2.47 µM).

`CCNC(=O)Nc1nc2cc(-c3cccnc3)cc(-c3ccc(C(N)=O)cn3)c2s1` [Example 98, 6-[2-(3-Ethyl-ureido)-5-pyridin-3-yl-benzothiazol-7-yl]-nicotinamide]: the MIC was in the range of 0.25 to 1 µg/mL (≈ 0.597 to 2.39 µM).

Turning to `CCNC(=O)Nc1nc2cc(-c3cccnc3)cc(-c3ccc(N)cn3)c2s1` [Example 99, 1-[7-(5-Amino-pyridin-2-yl)-5-pyridin-3-yl-benzothiazol-2-yl]-3-ethyl-urea], the MIC was below 0.25 µg/mL.

Regarding `CCNC(=O)Nc1nc2cc(-c3cccnc3)cc(-c3cc(N)ccn3)c2s1` [Example 100, 1-[7-(4-Amino-pyridin-2-yl)-5-pyridin-3-yl-benzothiazol-2-yl]-3-ethyl-urea], the MIC was below 0.25 µg/mL.

On to `CCNC(=O)Nc1nc2cc(-c3cccnc3)cc(-c3cnccn3)c2s1` [Example 101, 1-Ethyl-3-(7-pyrazin-2-yl-5-pyridin-3-yl-benzothiazol-2-yl)-urea], for which the MIC is below 0.25 µg/mL.

For `CCNC(=O)Nc1nc2cc(-c3cccnc3)cc(-c3sc(C)nc3C)c2s1` [Example 102, 1-[7-(2,4-Dimethyl-thiazol-5-yl)-5-pyridin-3-yl-benzothiazol-2-yl]-3-ethyl-urea], the MIC fell in the range of 0.25 to 1 µg/mL (≈ 0.61 to 2.44 µM).

Turning to `CCNC(=O)Nc1nc2cc(-c3cccnc3)cc(-c3nc(C)ccc3C#N)c2s1` [Example 103, 1-[7-(3-Cyano-6-methyl-pyridin-2-yl)-5-pyridin-3-yl-benzothiazol-2-yl]-3-ethyl-urea], the MIC was below 0.25 µg/mL.
